How the values were obtained:
[1] = Therapeutic index, ratio of IC50 for human H9 cells to EC50 for HIV1; type: cell-based; conditions: for pTI: h9
[2] = tested on: Human immunodeficiency virus 1; test: Antiviral activity against Human immunodeficiency virus 1 infected human H9 cells assessed as inhibition of viral replication; type: functional, organism-based; conditions: Human immunodeficiency virus 1, H9; read-out: pEC50 (converted)

EC50 [2] | SMILES | pTI [1] | selectivity ratio ([1]; H9 cells, read-out: Ratio IC50/EC50)
2100 nM | C=C(C)[C@@H]1CC[C@]2(COC(=O)CC3(CC(=O)O)CCCC3)CC[C@]3(C)[C@H](CC[C@@H]4[C@@]5(C)CC[C@H](O)C(C)(C)[C@@H]5CC[C@]43C)[C@@H]12 | -0.785 | 
1600 nM | CC(C)[C@@H]1CC[C@]2(COC(=O)CCCC(=O)O)CC[C@]3(C)[C@H](CC[C@@H]4[C@@]5(C)CC[C@H](OC(=O)CCCC(=O)O)C(C)(C)[C@@H]5CC[C@]43C)[C@@H]12 | -1.23 | 
59 nM | CC(CC(=O)O)CC(=O)OC[C@]12CC[C@@H](C(C)C)[C@@H]1[C@H]1CC[C@@H]3[C@@]4(C)CC[C@H](OC(=O)CC(C)CC(=O)O)C(C)(C)[C@@H]4CC[C@@]3(C)[C@]1(C)CC2 (some centres not stated) | -2.512 | 
3800 nM | C=C(C)[C@@H]1CC[C@]2(COC(=O)CCCC(=O)O)CC[C@]3(C)[C@H](CC[C@@H]4[C@@]5(C)CC[C@H](OC(=O)CCCC(=O)O)C(C)(C)[C@@H]5CC[C@]43C)[C@@H]12 | -0.833 | 
1070 nM | C=C(C)[C@@H]1CC[C@]2(CN)CC[C@]3(C)[C@H](CC[C@@H]4[C@@]5(C)CC[C@H](N)C(C)(C)[C@@H]5CC[C@]43C)[C@@H]12 | -0.708 | 
3.9 nM | C=C(C)[C@@H]1CC[C@]2(COC(=O)CC(C)CC(=O)O)CC[C@]3(C)[C@H](CC[C@@H]4[C@@]5(C)CC[C@H](OC(=O)CC(C)CC(=O)O)C(C)(C)[C@@H]5CC[C@]43C)[C@@H]12 (some centres not stated) | -3.725 | 
4570 nM | C=C(C)[C@@H]1CC[C@]2(NOC(=O)CCC(C)(C)CC(=O)O)CC[C@]3(C)[C@H](CC[C@@H]4[C@@]5(C)CC/C(=N\OC(=O)CCC(C)(C)CC(=O)O)C(C)(C)[C@@H]5CC[C@]43C)[C@@H]12 | -0.532 | 
6590 nM | CC(C)[C@@H]1CC[C@]2(C(=O)OC(=O)OCN(C)C)CC[C@]3(C)[C@H](CC[C@@H]4[C@@]5(C)CC[C@H](O)C(C)(C)[C@@H]5CC[C@]43C)[C@@H]12 | 0 | 
3800 nM | CC(C)[C@@H]1CC[C@]2(C(=O)OC(=O)OCN(C)C)CC[C@]3(C)[C@H](CC[C@@H]4[C@@]5(C)CCC(=O)C(C)(C)[C@@H]5CC[C@]43C)[C@@H]12 | -0.544 | 
10200 nM | C=C(COC(C)=O)[C@@H]1CC[C@]2(COC(C)=O)CC[C@]3(C)[C@H](CC[C@@H]4[C@@]5(C)CC[C@H](OC(C)=O)C(C)(C)[C@@H]5CC[C@]43C)[C@@H]12 | -0.398 | 
4300 nM | C=C(C)[C@@H]1CC[C@]2(COC(=O)CC3(CC(=O)O)CCCC3)CC[C@]3(C)[C@H](CC[C@@H]4[C@@]5(C)CCC(=O)C(C)(C)[C@@H]5CC[C@]43C)[C@@H]12 | -0.477 | 

The remaining lines, values behind:

SMILES | EC50 [2] | pTI [1] | selectivity ratio ([1]; H9 cells, read-out: Ratio IC50/EC50)
C=C(C)[C@@H]1CC[C@]2(COC(=O)CCC(=O)O)CC[C@]3(C)[C@H](CC[C@@H]4[C@@]5(C)CC[C@H](OC(=O)CCC(=O)O)C(C)(C)[C@@H]5CC[C@]43C)[C@@H]12 | 3800 nM | -0.969 | 
C=C(COC(=O)CC(C)(C)CC(=O)O)[C@@H]1CC[C@]2(COC(=O)CC(C)(C)CC(=O)O)CC[C@]3(C)[C@H](CC[C@@H]4[C@@]5(C)CC[C@H](OC(=O)CC(C)(C)CC(=O)O)C(C)(C)[C@@H]5CC[C@]43C)[C@@H]12 | 45 nM | -2.59 | 
C=C(C)[C@@H]1CC[C@]2(COC(=O)CC(C)(C)CC(=O)O)CC[C@]3(C)[C@H](CC[C@@H]4[C@@]5(C)CCC(=O)C(C)(C)[C@@H]5CC[C@]43C)[C@@H]12 | 10000 nM | -0.462 | 
CC(C)[C@@H]1CC[C@]2(COC(=O)CC(C)(C)CC(=O)O)CC[C@]3(C)[C@H](CC[C@@H]4[C@@]5(C)CC[C@H](OC(=O)CC(C)(C)CC(=O)O)C(C)(C)[C@@H]5CC[C@]43C)[C@@H]12 | 4.7 nM | -3.353 | 
C=C(COC(=O)CC1(CC(=O)O)CCCC1)[C@@H]1CC[C@]2(COC(=O)CC3(CC(=O)O)CCCC3)CC[C@]3(C)[C@H](CC[C@@H]4[C@@]5(C)CC[C@H](OC(=O)CC6(CC(=O)O)CCCC6)C(C)(C)[C@@H]5CC[C@]43C)[C@@H]12 | 5.4 nM | -3.076 | 
C=C(C)[C@@H]1CC[C@]2(COC(=O)CC3(CC(=O)O)CCCC3)CC[C@]3(C)[C@H](CC[C@@H]4[C@@]5(C)CC[C@H](OC(=O)CC6(CC(=O)O)CCCC6)C(C)(C)[C@@H]5CC[C@]43C)[C@@H]12 | 76.9 nM | -2.427 | 
CCC(C)(CC(=O)O)CC(=O)OC[C@]12CC[C@@H](C(C)C)[C@@H]1[C@H]1CC[C@@H]3[C@@]4(C)CC[C@H](OC(=O)CC(C)(CC)CC(=O)O)C(C)(C)[C@@H]4CC[C@@]3(C)[C@]1(C)CC2 (some centres not stated) | 75 nM | -2.395 | 
C=C(C)[C@@H]1CC[C@]2(COC(=O)CC(C)(C)CC(=O)O)CC[C@]3(C)[C@H](CC[C@@H]4[C@@]5(C)CC[C@H](O)C(C)(C)[C@@H]5CC[C@]43C)[C@@H]12 | 3600 nM | -0.892 | 
C=C(C)[C@@H]1CC[C@]2(C(=O)O)CC[C@]3(C)[C@H](CC[C@@H]4[C@@]5(C)CC[C@H](OC(=O)CC(C)(C)CC(=O)O)C(C)(C)[C@@H]5CC[C@]43C)[C@@H]12 | 2.3 nM |  | 
C=C(C)[C@@H]1CC[C@]2(COC(=O)CC(C)(CC)CC(=O)O)CC[C@]3(C)[C@H](CC[C@@H]4[C@@]5(C)CC[C@H](OC(=O)CC(C)(CC)CC(=O)O)C(C)(C)[C@@H]5CC[C@]43C)[C@@H]12 (some centres not stated) | 5.3 nM | -3.541 | 
C=C(C)[C@@H]1CC[C@]2(COC(=O)CC(C)(C)CC(=O)O)CC[C@]3(C)[C@H](CC[C@@H]4[C@@]5(C)CC[C@H](OC(=O)CC(C)(C)CC(=O)O)C(C)(C)[C@@H]5CC[C@]43C)[C@@H]12 | 0.659 nM | -4.333 | 
CC(C)[C@@H]1CC[C@]2(COC(=O)CC3(CC(=O)O)CCCC3)CC[C@]3(C)[C@H](CC[C@@H]4[C@@]5(C)CC[C@H](OC(=O)CC6(CC(=O)O)CCCC6)C(C)(C)[C@@H]5CC[C@]43C)[C@@H]12 | 579 nM | -1.568 | 
C=C(C)[C@@H]1CC[C@]2(CNC(=O)CC(C)(C)CC(=O)O)CC[C@]3(C)[C@H](CC[C@@H]4[C@@]5(C)CC[C@H](NC(=O)CC(C)(C)CC(=O)O)C(C)(C)[C@@H]5CC[C@]43C)[C@@H]12 | 570 nM | -1.564 | 
C=C(C)[C@@H]1CC[C@]2(C(=O)NCCCCCCCC(=O)N[C@@H](CC(C)C)[C@@H](O)CC(=O)O)CC[C@]3(C)[C@H](CC[C@@H]4[C@@]5(C)CC[C@H](O)C(C)(C)[C@@H]5CC[C@]43C)[C@@H]12 | 330 nM | -1.544 | 
C=C(C)[C@@H]1CC[C@]2(C(=O)O)CC[C@]3(C)[C@H](CC[C@@H]4[C@@]5(C)CC[C@H](O)C(C)(C)[C@@H]5CC[C@]43C)[C@@H]12 (stereo in doubt; 1) [BETULINIC ACID] |  | -0.969 | 
C=C(C)[C@@H]1CC[C@]2(CO)CC[C@]3(C)[C@H](CC[C@@H]4[C@@]5(C)CC[C@H](O)C(C)(C)[C@@H]5CC[C@]43C)[C@@H]12 [BETULIN] |  | -0.279 | 1.9
